Experimental data: patent US9060928B2, “Tacrolimus injection preparation” (FUZHOU HARVESTER PHARMACEUTICAL R&D CO., LTD., priority 2009, dated 2015)

Assays:
[1] = cited from earlier work
guinea pigs = assay: Hypersensitivity test in animals; assay type: in vivo
Experimental: 18 healthy guinea pigs weighed 250-350 g were divided into 3 groups (a test group, a negative control group, and a positive control group) of 6 animals each at random. […] In 15 min after the injection, the hypersensitive responses of the injected guinea pigs were observed. A positive response was determined if two or more of piloerection, dyspnea, or 3 cough sounds, or one of twitch, collapse or death appeared.

## C=CC[C@@H]1/C=C(\C)C[C@H](C)C[C@H](OC)[C@H]2O[C@@](O)(C(=O)C(=O)N3CCCC[C@H]3C(=O)O[C@H](/C(C)=C/[C@@H]3CC[C@@H](O)[C@H](OC)C3)[C@H](C)[C@@H](O)CC1=O)[C@H](C)C[C@@H]2OC (relative stereo) [tacrolimus, [3S—[3R*[E(1S*,3S*,4S*)],4S*,5R*,8S*,9E,12R*,14R*,15S*,16R*,18S*,19S*,26aR*]]-5,6,8,11,12,13,14,15,16,17,18,19,24,25,26a-hexa-decahydro-5,19-dihydroxy-3-[2-(4-hydroxy-3-methoxycyclohexyl)-1-methylethenyl]-14,16-dimethoxy-4,10,12,18-tetramethyl-8-(2-propenyl)-15,19-epoxy-3H-pyrido[2,1-c][1,4]oxazacyclotricosene-1,7,20,21(4H,23H)-tetrone, monohydrate]
[1]; organic solvents (such as methanol, ethanol, or acetone)
  Solubility in organic solvents: freely soluble
[1]; water
  Solubility in water: practically insoluble

B1: 10% ovalbumin solution: 10% ovalbumin solution, positive control of the hypersensitivity test (protein, UniProt P01012 2-386, looked up)
Ovalbumin: GSIGAASMEFCFDVFKELKVHHANENIFYCPIAIMSALAMVYLGAKDSTRTQINKVVRFDKLPGFGDSIEAQCGTSVNVHSSLRDILNQITKPNDVYSFSLASRLYAEERYPILPEYLQCVKELYRGGLEPINFQTAADQARELINSWVESQTNGIIRNVLQPSSVDSQTAMVLVNAIVFKGLWEKAFKDEDTQAMPFRVTEQESKPVQMMYQIGLFRVASMASEKMKILELPFASGTMSMLVLLPDEVSGLEQLESIINFEKLTEWTSSNVMEERKIKVYLPRMKMEEKYNLTSVLMAMGITDVFSSSANLSGISSAESLKISQAVHAAHAEINEAGREVVGSAEAGVDAASVSEEFRADHPFLFCIKHIATNAVLFFGRCVSP
Guinea pigs; guinea pigs, n = 6, intraperitoneal sensitization, intravenous boost at days 14 and 21, animals responding/total
  Occurrence of hypersensitive response: 6/6
Guinea pigs; in 1 min after two times of intravenous administration, 6 guinea pigs
  Hypersensitive response of positive control (in words): cough, respiratory depression, and twitch to death occur to all of the 6 guinea pigs
